Results as given in ChEMBL document CHEMBL3822415, “Toward the Validation of Maternal Embryonic Leucine Zipper Kinase: Discovery, Optimization of Highly Potent and Selective Inhibitors, and Preliminary Biology Insight” (J Med Chem, 2016).
Converted amounts (≈) assume the structure as drawn. One block for each compound: values may come before it.

Legend:
[1] = target: T1, Maternal embryonic leucine zipper kinase (Homo sapiens, UniProt Q14680); test: Inhibition of MELK catalytic domain (unknown origin) preincubated for 20 mins followed by addition of KinEASE STK S1 peptide as substrate in presence of 20 uM ATP measured after 20 mins by time-resolved fluorescence assay
T1 sequence (Q14680 whole entry, the tested form may be a part): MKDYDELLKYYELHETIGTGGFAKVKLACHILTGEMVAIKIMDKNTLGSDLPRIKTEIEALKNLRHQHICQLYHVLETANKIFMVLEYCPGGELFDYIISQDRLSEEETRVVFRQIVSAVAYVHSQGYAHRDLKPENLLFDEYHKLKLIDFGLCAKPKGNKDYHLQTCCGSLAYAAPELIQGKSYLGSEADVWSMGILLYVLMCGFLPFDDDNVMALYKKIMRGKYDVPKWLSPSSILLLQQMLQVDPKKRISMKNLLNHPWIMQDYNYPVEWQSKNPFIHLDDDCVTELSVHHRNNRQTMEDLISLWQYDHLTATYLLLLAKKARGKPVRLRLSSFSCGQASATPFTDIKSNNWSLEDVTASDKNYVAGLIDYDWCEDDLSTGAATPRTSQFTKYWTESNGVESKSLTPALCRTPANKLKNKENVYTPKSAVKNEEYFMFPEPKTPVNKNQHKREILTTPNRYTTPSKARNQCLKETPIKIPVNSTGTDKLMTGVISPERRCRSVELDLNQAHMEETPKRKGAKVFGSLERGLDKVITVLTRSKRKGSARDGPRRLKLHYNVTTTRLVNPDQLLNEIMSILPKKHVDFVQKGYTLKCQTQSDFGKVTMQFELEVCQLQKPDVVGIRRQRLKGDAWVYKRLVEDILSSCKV

[2] = target: T1, Maternal embryonic leucine zipper kinase; test: Inhibition of MELK catalytic domain (unknown origin) preincubated for 20 mins followed by addition of KinEASE STK S1 peptide as substrate in presence of 2 mM ATP measured after 20 mins by time-resolved fluorescence assay
[3] = Cmax in C57BL/6 mouse at 5 mg/kg, po by LC-MS/MS analysis; assay type: ADME, organism-based; design: dose 5 mg/kg, route oral; details: in vivo
[4] = Tmax in C57BL/6 mouse at 5 mg/kg, po by LC-MS/MS analysis; assay type: ADME, organism-based; details: in vivo
[5] = AUC (0 to 7 hrs) in C57BL/6 mouse at 5 mg/kg, po by LC-MS/MS analysis; assay type: ADME, organism-based; design: dose 5 mg/kg, time < 7 hr, route oral; details: in vivo
[6] = Oral bioavailability in C57BL/6 mouse at 5 mg/kg by LC-MS/MS analysis; assay type: ADME, organism-based; details: in vivo
[7] = target: T2, Serine/threonine-protein kinase haspin (Homo sapiens, UniProt Q8TF76); test: Inhibition of partial-length human wild type HASPIN expressed in mammalian expression system by KINOMEscan assay
T2 sequence (Q8TF76 whole entry): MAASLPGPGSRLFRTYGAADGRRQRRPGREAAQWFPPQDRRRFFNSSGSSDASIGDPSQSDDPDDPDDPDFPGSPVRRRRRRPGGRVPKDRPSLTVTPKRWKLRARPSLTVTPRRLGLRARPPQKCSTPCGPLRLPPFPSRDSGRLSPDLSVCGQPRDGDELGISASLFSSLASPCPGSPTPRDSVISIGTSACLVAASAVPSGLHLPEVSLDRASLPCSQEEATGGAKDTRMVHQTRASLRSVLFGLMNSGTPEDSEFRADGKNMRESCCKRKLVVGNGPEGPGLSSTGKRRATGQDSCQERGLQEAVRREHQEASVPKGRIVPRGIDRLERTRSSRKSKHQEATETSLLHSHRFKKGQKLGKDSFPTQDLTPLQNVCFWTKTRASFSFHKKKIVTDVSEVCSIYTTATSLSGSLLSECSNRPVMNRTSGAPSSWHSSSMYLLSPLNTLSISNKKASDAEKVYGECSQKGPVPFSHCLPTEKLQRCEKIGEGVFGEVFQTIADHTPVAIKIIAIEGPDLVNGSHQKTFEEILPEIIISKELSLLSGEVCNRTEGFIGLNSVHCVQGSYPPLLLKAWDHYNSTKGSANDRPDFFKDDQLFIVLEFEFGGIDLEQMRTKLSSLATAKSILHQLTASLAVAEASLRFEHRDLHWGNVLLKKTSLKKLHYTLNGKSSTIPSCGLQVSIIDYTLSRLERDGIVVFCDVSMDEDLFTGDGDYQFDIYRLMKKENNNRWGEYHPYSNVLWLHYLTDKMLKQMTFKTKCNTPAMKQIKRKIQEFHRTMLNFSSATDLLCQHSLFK

[8] = target: Receptor-type tyrosine-protein kinase FLT3 (Homo sapiens, UniProt P36888, ITD); test: Inhibition of partial-length human FLT3 ITD mutant expressed in bacterial expression system by KINOMEscan assay
[9] = Apparent permeability across apical to basolateral side in human Caco2 cells; assay type: ADME, cell-based; details: Caco-2
[10] = Cmax in C57BL/6 mouse at 30 mg/kg, sc by LC-MS/MS analysis; assay type: ADME, organism-based; design: dose 30 mg/kg, route subcutaneous; details: in vivo
[11] = Oral bioavailability in C57BL/6 mouse at 10 mg/kg by LC-MS/MS analysis; assay type: ADME, organism-based; details: in vivo
[12] = target: T1, Maternal embryonic leucine zipper kinase; test: Binding affinity to MELK (unknown origin) expressed in Escherichia coli by SPR analysis
[13] = Half life of the compound; assay type: physicochemical
[14] = target: Mast/stem cell growth factor receptor Kit (Homo sapiens, UniProt P10721, A829P); test: Inhibition of partial-length human KIT A829P mutant expressed in mammalian expression system by KINOMEscan assay
Chain of Mast/stem cell growth factor receptor Kit (P10721 26-976 A829P limits assumed): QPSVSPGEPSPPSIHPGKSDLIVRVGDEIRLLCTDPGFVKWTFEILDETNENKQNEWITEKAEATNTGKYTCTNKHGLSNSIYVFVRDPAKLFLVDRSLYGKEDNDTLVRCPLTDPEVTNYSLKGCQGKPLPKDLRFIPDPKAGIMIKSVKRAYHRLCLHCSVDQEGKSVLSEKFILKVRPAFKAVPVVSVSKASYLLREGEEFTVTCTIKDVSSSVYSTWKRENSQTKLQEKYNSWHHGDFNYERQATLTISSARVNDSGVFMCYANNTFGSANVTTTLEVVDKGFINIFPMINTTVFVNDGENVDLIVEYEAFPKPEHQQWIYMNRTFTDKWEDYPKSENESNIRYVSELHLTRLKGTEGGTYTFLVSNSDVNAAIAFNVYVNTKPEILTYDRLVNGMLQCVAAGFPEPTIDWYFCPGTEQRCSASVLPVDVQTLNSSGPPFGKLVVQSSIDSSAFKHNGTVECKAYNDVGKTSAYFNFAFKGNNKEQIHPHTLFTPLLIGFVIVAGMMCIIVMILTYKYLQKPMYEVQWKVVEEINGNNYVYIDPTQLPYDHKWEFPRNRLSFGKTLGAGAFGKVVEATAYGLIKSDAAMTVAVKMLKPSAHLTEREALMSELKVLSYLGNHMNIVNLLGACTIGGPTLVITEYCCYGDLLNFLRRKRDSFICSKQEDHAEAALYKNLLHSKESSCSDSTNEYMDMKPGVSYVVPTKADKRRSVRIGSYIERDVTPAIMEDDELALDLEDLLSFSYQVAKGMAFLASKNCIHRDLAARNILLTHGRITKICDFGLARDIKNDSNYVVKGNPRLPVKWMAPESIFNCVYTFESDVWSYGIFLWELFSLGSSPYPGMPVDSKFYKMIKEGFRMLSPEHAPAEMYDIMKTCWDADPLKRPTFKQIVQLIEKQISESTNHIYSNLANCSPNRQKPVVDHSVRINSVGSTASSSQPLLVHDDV

Plasma [15] = test: Drug uptake in plasma of athymic nude mouse at 120 mg/kg, sc bid; assay type: ADME, organism-based; details: in vivo
[16] = AUC (0 to 7 hrs) in C57BL/6 mouse at 10 mg/kg, po by LC-MS/MS analysis; assay type: ADME, organism-based; design: time < 7 hr, dose 10 mg/kg, route oral; details: in vivo
Plasma [17] = test: Metabolic stability in mouse plasma measured after 4 hrs; assay type: ADME, cell-free
[18] = target: T1, Maternal embryonic leucine zipper kinase; test: Inhibition of full-length MELK (unknown origin) preincubated for 20 mins followed by addition of KinEASE STK S1 peptide as substrate in presence of 20 uM ATP measured after 20 mins by time-resolved fluorescence assay
[19] = Extraction ratio in mouse microsomes; assay type: ADME, Microsome
[20] = Tmax in C57BL/6 mouse at 30 mg/kg, sc by LC-MS/MS analysis; assay type: ADME, organism-based; details: in vivo
[21] = AUC (0 to 7 hrs) in C57BL/6 mouse at 1 mg/kg, iv by LC-MS/MS analysis; assay type: ADME, organism-based; design: time < 7 hr, dose 1 mg/kg, route intravenous; details: in vivo
[22] = target: T3, Platelet-derived growth factor receptor alpha (Homo sapiens, UniProt P16234); test: Inhibition of partial-length human wild type PDGFR-alpha expressed in mammalian expression system by KINOMEscan assay
T3 sequence (P16234 whole entry): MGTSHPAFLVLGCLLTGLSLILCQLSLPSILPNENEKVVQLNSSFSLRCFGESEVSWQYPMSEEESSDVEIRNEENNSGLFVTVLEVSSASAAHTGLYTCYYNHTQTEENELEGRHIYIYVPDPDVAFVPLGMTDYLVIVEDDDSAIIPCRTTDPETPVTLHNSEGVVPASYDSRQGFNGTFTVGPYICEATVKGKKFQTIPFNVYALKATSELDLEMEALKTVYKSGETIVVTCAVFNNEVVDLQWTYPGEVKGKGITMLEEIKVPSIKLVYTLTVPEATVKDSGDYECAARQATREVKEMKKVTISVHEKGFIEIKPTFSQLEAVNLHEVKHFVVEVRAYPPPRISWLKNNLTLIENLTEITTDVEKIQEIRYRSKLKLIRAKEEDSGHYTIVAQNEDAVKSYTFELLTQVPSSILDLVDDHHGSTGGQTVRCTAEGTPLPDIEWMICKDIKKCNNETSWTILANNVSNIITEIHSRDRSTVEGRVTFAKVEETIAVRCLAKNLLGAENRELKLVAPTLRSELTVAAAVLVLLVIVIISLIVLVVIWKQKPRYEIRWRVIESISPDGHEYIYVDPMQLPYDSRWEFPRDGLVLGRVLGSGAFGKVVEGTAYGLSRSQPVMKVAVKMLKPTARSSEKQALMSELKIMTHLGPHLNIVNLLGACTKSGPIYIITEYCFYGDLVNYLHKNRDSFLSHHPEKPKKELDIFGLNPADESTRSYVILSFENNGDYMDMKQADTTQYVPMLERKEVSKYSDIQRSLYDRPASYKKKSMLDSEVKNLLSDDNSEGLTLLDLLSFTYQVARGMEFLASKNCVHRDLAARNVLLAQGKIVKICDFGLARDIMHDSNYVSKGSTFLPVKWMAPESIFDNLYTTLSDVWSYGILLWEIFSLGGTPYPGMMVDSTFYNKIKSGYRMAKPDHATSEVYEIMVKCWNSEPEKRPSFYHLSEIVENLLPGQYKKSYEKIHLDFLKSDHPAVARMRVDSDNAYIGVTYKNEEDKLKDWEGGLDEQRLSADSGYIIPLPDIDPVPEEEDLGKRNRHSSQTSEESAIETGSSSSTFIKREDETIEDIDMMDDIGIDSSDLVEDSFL

[23] = Tmax in C57BL/6 mouse at 10 mg/kg, po by LC-MS/MS analysis; assay type: ADME, organism-based; details: in vivo
[24] = Cmax in C57BL/6 mouse at 10 mg/kg, po by LC-MS/MS analysis; assay type: ADME, organism-based; design: dose 10 mg/kg, route oral; details: in vivo
[25] = Volume of distribution at steady state in C57BL/6 mouse at 1 mg/kg, iv by LC-MS/MS analysis; assay type: ADME, organism-based; details: in vivo, read-out: Vdss
MCF7 = test: Antiproliferative activity against MELK-independent ER-positive human MCF7 cells assessed as reduction in cell viability after 7 days by CellTiter-Glo assay; details: MCF7, 168 h
[26] = AUC (0 to 7 hrs) in C57BL/6 mouse at 30 mg/kg, sc by LC-MS/MS analysis; assay type: ADME, organism-based; design: dose 30 mg/kg, time < 7 hr, route subcutaneous; details: in vivo
[27] = Solubility of the compound at pH 6.8; assay type: physicochemical; details: buffer
[28] = Clearance in C57BL/6 mouse at 1 mg/kg, iv by LC-MS/MS analysis; assay type: ADME, organism-based; details: in vivo
Plasma [29] = test: Drug uptake in plasma of athymic nude mouse at 120 to 240 mg/kg, sc qd; assay type: ADME, organism-based; details: in vivo
MDA-MB-468 = test: Antiproliferative activity against MELK-dependent human MDA-MB-468 cells assessed as reduction in cell viability after 7 days by CellTiter-Glo assay; details: MDA-MB-468, 168 h
[30] = target: Mitogen-activated protein kinase kinase kinase kinase 4 (Homo sapiens, UniProt O95819); test: Inhibition of MAP4K4 (unknown origin)
Chain of Mitogen-activated protein kinase kinase kinase kinase 4 (O95819 whole entry): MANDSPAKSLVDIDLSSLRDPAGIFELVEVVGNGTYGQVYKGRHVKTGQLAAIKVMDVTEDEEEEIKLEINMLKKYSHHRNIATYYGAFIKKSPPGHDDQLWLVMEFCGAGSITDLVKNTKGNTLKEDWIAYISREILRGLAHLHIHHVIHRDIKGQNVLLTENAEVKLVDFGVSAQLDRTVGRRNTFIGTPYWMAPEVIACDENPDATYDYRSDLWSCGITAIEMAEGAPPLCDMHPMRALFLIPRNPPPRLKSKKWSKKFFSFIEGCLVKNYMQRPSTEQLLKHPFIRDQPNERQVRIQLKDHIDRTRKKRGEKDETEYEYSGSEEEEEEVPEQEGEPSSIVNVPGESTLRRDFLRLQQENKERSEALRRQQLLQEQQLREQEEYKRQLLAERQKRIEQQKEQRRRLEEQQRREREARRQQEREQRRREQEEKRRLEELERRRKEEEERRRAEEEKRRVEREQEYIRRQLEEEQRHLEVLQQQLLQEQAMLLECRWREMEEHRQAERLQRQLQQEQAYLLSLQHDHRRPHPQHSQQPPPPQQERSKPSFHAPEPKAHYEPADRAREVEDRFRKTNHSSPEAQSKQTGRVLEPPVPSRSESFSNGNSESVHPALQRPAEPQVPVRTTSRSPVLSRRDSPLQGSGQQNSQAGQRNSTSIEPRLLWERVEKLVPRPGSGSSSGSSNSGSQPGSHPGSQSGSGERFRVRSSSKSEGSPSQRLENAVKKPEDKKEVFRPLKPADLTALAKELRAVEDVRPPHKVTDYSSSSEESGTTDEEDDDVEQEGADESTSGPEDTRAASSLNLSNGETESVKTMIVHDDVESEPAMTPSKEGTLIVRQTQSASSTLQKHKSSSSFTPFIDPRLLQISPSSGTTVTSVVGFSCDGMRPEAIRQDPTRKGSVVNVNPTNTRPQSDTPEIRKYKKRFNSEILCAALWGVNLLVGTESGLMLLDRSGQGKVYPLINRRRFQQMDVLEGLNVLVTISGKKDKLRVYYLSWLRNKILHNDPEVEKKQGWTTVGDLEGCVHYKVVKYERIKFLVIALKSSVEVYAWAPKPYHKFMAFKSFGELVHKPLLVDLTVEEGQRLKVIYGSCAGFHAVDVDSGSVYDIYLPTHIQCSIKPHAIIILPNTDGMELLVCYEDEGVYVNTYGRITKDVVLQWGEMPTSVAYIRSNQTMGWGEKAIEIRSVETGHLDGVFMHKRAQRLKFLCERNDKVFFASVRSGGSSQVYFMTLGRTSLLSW

[31] = target: T3, Platelet-derived growth factor receptor alpha; test: Inhibition of PDGFR-alpha (unknown origin)
[32] = target: T4, Receptor-type tyrosine-protein kinase FLT3 (Homo sapiens, UniProt P36888); test: Inhibition of FLT3 (unknown origin)
T4 sequence (P36888 whole entry): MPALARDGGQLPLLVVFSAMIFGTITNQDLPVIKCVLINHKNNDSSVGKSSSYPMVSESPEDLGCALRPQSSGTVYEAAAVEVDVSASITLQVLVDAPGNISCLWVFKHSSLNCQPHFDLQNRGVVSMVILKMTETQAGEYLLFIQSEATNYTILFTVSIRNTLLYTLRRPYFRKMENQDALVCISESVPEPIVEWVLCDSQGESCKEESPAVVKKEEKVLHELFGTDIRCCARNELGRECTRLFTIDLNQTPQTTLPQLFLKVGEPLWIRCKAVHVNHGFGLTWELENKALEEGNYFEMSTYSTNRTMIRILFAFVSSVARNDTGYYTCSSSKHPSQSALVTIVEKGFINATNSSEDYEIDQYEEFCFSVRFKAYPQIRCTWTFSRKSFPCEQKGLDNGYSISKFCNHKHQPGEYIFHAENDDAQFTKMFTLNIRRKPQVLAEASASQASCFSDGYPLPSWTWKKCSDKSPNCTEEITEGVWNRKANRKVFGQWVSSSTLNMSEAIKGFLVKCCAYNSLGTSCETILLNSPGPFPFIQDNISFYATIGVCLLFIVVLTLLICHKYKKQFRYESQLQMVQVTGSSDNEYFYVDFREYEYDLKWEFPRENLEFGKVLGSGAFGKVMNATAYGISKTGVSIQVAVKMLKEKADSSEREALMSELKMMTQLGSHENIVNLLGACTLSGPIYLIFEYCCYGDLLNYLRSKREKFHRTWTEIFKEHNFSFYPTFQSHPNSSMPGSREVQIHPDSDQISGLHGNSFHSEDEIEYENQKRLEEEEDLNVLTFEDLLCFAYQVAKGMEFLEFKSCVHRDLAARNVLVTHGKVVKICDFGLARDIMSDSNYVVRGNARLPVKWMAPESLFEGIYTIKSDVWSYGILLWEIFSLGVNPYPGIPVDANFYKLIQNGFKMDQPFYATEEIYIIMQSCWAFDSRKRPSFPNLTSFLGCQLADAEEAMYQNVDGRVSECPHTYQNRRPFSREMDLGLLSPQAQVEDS

Compound: CN1CCN(c2ccc(-c3cc(-c4ccccc4)n[nH]3)cc2)CC1
- IC50 [1]: 670 nM

Compound: CN1CCN(c2ccc(-n3cc(-c4ccncc4F)cn3)cc2)CC1
- IC50 [2]: 5000 nM
- IC50 [1]: 70 nM

Compound: c1ccc(-n2cc(-c3ccncc3OCC3CCNCC3)cn2)cc1
- Cmax [3]: 1030 nM
- Tmax [4]: 1.7 h
- IC50 [1]: 36 nM
- AUC(0-t) at 7 h [5]: 3.44 µM·h
- bioavailability [6]: 43%

Compound: CN1CCN(c2ccc(-n3cc(-c4ccncc4OCC4CCNCC4)cn3)cc2)CC1
- IC50 [7]: 190 nM
- IC50 [8]: 180 nM
- Papp A→B [9]: 14 ×10⁻⁶ cm/s
- Cmax [10]: 6.56 µM
- bioavailability [11]: 3.6%
- IC50 [12]: 2 nM
- half-life [13]: 1 min
- IC50 [14]: > 10 µM
- IC50 [2]: 140 nM
- Drug uptake (Plasma [15]): Active
- AUC(0-t) at 7 h [16]: 0.0832 µM·h
- Stability (Plasma [17]): Stable
- IC50 [1]: 2 nM
- IC50 [18]: 5 nM
- hepatic extraction ratio [19]: 0.75
- Tmax [20]: 24 min
- AUC(0-t) at 7 h [21]: 0.23 µM·h
- IC50 [22]: 420 nM
- Tmax [23]: 30 min
- Cmax [24]: 34 nM
- Vd [25]: 40.8 L/kg
- IC50 (MCF7): 3680 nM
- AUC(0-t) at 7 h [26]: 18.9 µM·h
- solubility [27]: 220 µg/mL (≈ 509 µM)
- clearance [28]: 114 mL/min/kg
- Drug uptake (Plasma [29]): Active
- IC50 (MDA-MB-468): 110 nM

Compound: COc1cnccc1-c1cnn(-c2ccc(N3CCN(C)CC3)cc2)c1
- IC50 [1]: 64 nM

Compound: CS(=O)(=O)c1ccc(-n2cc(-c3ccncc3)cn2)cc1
- IC50 [1]: 400 nM

Compound: CN1CCN(c2ccc(-n3cc(-c4ccncc4OC[C@H]4CC[C@H](N)CC4)cn3)cc2)CC1
- IC50 [2]: 57 nM
- IC50 [1]: 1 nM
- IC50 (MCF7): 1200 nM
- IC50 (MDA-MB-468): 60 nM

Compound: O=C(NCc1ccccn1)c1ccc(-n2cc(-c3ccncc3)cn2)cc1
- IC50 [30]: < 5 µM
- IC50 [2]: 18800 nM
- IC50 [31]: < 5 µM
- IC50 [1]: 180 nM
- IC50 [32]: < 5 µM

Compound: CN1CCN(c2ccc(-n3cc(-c4ccncc4)cn3)cc2)CC1
- IC50 [2]: 5000 nM
- IC50 [1]: 80 nM

Compound: CS(=O)(=O)c1ccc(-n2cc(-c3ccccc3)cn2)cc1
- IC50 [1]: > 20000 nM

Compound: CN1CCN(c2ccc(-n3cc(-c4ccncc4OCc4ccncc4)cn3)cc2)CC1
- IC50 [2]: 1440 nM
- IC50 [1]: 25 nM

Compound: CS(=O)(=O)c1ccc(-n2cc(-c3ccc(O)cc3)cn2)cc1
- IC50 [1]: 520 nM

Results, then the compound that gave them:

- IC50 [1]: 0.3 nM
Compound: Fc1cc(N2CCOCC2)ccc1-n1cc(-c2ccncc2OCC2CCNCC2)cn1

- IC50 [2]: 210 nM
- IC50 [1]: 6 nM
Compound: c1cc(-c2cnn(-c3ccc(N4CCOCC4)cc3)c2)c(OCC2CCNCC2)cn1

- IC50 [2]: 260 nM
- IC50 [1]: 6 nM
Compound: CN1CCN(c2ccc(-n3cc(-c4ccncc4OC4CCNCC4)cn3)cc2)CC1

- IC50 [2]: 150 nM
- IC50 [1]: 4 nM
Compound: CN1CCN(c2ccc(-n3cc(-c4ccncc4OC4CCCCC4)cn3)cc2)CC1

- IC50 [2]: 410 nM
- IC50 [1]: 9 nM
Compound: CC(C)COc1cnccc1-c1cnn(-c2ccc(N3CCN(C)CC3)cc2)c1

- IC50 [1]: 13 nM
Compound: Fc1ccccc1-n1cc(-c2ccncc2OCC2CCNCC2)cn1
